Experiments:
[1] = system: thymocyte proliferation (cells from the thymus of normal BALB/c mice, PHA and IL-1); test: comitogen-induced thymocyte proliferation procedure (LAF); assay type: cell-based; details: for LAF (ratio): calculation described in b29 (formula not shown)
Description: (§1) Immunosuppressive activity was evaluated in an in vitro standard pharmacological test procedure to measure lymphocyte proliferation (LAF) and in two in vivo standard pharmacological test procedures. The first in vivo procedure was a popliteal lymph node (PLN) test procedure which measured the effect of compounds of this invention on a mixed lymphocyte reaction and the second in vivo procedure evaluated the survival time of a pinch skin graft.
Briefly, cells from the thymus of normal BALB/c mice are cultured for 72 hours with PHA and IL-1 and pulsed with tritiated thymidine during the last six hours. […] Cells are harvested and incorporated; radioactivity is determined. Inhibition of lymphoproliferation is assessed in percent change in counts per minute from non-drug treated controls. The results are expressed by the following ratio, or as the IC50, expressed in nM. [formula]

[2] = system: mixed lymphocyte reaction in popliteal lymph node; test: popliteal lymph node (PLN) test procedure, in vivo mixed lymphocyte reaction; design: species or system mouse (BALB/c donors, C3H mice recipients); details: for PLN (ratio): p.o. daily Day 0 to Day 4, calculation described in b30 (formula not shown)
Description: as §1
A mixed lymphocyte reaction (MLR) occurs when lymphoid cells from genetically distinct animals are combined in tissue culture. Each stimulates the other to undergo blast transformation which results in increased DNA synthesis that can be quantified by the incorporation of tritiated thymidine. Since stimulating a MLR is a function of disparity at Major Histocompatibility antigens, an in vivo popliteal lymph node (PLN) test procedure closely correlates to host vs. graft disease. Briefly, irradiated spleen cells from BALB/c donors are injected into the right hind foot pad of recipient C3H mice. The drug is given daily, p.o. from Day 0 to Day 4. On Day 3 and Day 4, tritiated thymidine is given i.p., b.i.d. On Day 5, the hind popliteal lymph nodes are removed and dissolved, and radioactivity counted. The corresponding left PLN serves as the control for the PLN from the injected hind foot. Percent suppression is calculated using the non-drug treated animals as allogenic control. […] Results are expressed by the following ratio: [formula]

[3] = system: pinch skin graft from male DBA/2 donors transplanted to male BALB/c recipients; test: survival time of pinch skin graft; assay type: in vivo, mouse (DBA/2 donors; details: intraperitoneally; days to rejection
Description: as §1
The second in vivo test procedure is designed to determine the survival time of pinch skin graft from male DBA/2 donors transplanted to male BALB/c recipients. The method is adapted from Billingham R. E. and Medawar P. B., J. Exp. Biol. 28:385-402, (1951). Briefly, a pinch skin graft from the donor is grafted on the dorsum of the recipient as a homograft, and an autograft is used as control in the same region. […] Untreated recipients serve as rejection control. The graft is monitored daily and observations are recorded until the graft becomes dry and forms a blackened scab. This is considered as the rejection day. The mean graft survival time (number of days±S.D.) of the drug treatment group is compared with the control group.

Candida albicans = details: particularly against Candida albicans, both in vitro and in vivo; cited from earlier work
[4] = system: experimental allergic encephalomyelitis model, a model for multiple sclerosis; details: in vivo; cited from earlier work
[5] = system: formation of IgE-like antibodies; details: cited from earlier work
[6] = system: organ grafts in histoincompatible rodents; details: cited from earlier work

Structure (SMILES)	LAF (ratio) [1]	PLN (ratio) [2]	Skin Graft (mean graft survival time) [3]	IC50 ([1]; Mus musculus, Thymocyte, read-out: LAF IC50) [nM]	Percent suppression in PLN ([2]; 6 mg/kg, p.o., vs non-drug treated allogenic control) [%]	antifungal activity (Candida albicans)	effect in experimental allergic encephalomyelitis model [4]	inhibition of the formation of IgE-like antibodies [5]	survival time of organ grafts [6]
CO[C@H]1C[C@@H]2CC[C@@H](C)[C@@](O)(O2)C(=O)C(=O)N2CCCC[C@H]2C(=O)O[C@H]([C@H](C)C[C@@H]2CC[C@@H](OC(=O)CC[C@H](NC(=O)OCc3ccccc3)C(=O)O[C@@H]3CC[C@@H](C[C@@H](C)[C@@H]4CC(=O)[C@H](C)/C=C(\C)[C@@H](O)[C@@H](OC)C(=O)[C@H](C)C[C@H](C)/C=C/C=C/C=C(\C)[C@@H](OC)C[C@@H]5CC[C@@H](C)[C@@](O)(O5)C(=O)C(=O)N5CCCC[C@H]5C(=O)O4)C[C@H]3OC)[C@H](OC)C2)CC(=O)[C@H](C)/C=C(\C)[C@@H](O)[C@@H](OC)C(=O)[C@H](C)C[C@H](C)/C=C/C=C/C=C/1C [Example 1, Rapamycin-42,42'-diester with N-[(phenylmethoxy)carbonyl]-L-glutamic acid]	0.53	0.45	10.2 ± 0.4 days ± SD	–	–	–	–	–	–
CO[C@H]1C[C@@H]2CC[C@@H](C)[C@@](O)(O2)C(=O)C(=O)N2CCCC[C@H]2C(=O)O[C@H]([C@H](C)C[C@@H]2CC[C@@H](O)[C@H](OC)C2)CC(=O)[C@H](C)/C=C(\C)[C@@H](O)[C@@H](OC)C(=O)[C@H](C)C[C@H](C)/C=C/C=C/C=C/1C [Rapamycin, rapamycin]	–	–	12.0 ± 1.7 days ± SD	8.7	86	antifungal activity, particularly against Candida albicans, both in vitro and in vivo	effective	effectively inhibited the formation of IgE-like antibodies	prolong survival time of organ grafts
CO[C@H]1C[C@@H]2CC[C@@H](C)[C@@](O)(O2)C(=O)C(=O)N2CCCC[C@H]2C(=O)O[C@H]([C@H](C)C[C@@H]2CC[C@@H](OC(=O)C[C@H](NC(=O)OCc3ccccc3)C(=O)O[C@@H]3CC[C@@H](C[C@@H](C)[C@@H]4CC(=O)[C@H](C)/C=C(\C)[C@@H](O)[C@@H](OC)C(=O)[C@H](C)C[C@H](C)/C=C/C=C/C=C(\C)[C@@H](OC)C[C@@H]5CC[C@@H](C)[C@@](O)(O5)C(=O)C(=O)N5CCCC[C@H]5C(=O)O4)C[C@H]3OC)[C@H](OC)C2)CC(=O)[C@H](C)/C=C(\C)[C@@H](O)[C@@H](OC)C(=O)[C@H](C)C[C@H](C)/C=C/C=C/C=C/1C [Example 2, Rapamycin 42-42'-diester with N-[(phenylmethoxycarbonyl)]-L-aspartic acid]	0.32	0.45	10.7 ± 0.2 days ± SD	–	–	–	–	–	–
